Drawing on ChEMBL document CHEMBL1201862, “PubChem BioAssay data set” (2004), this text covers IC50, EC50 and AC50 for four molecules.

Assay [1] has as its target T1, Delta-type opioid receptor (Homo sapiens, UniProt P41143). Put plainly: DOR antagonists, SAR follow-up, image-based (AID 2357). Type of assay: functional.
The target of assay [2] is T1, Delta-type opioid receptor. Put plainly: HTS Image-Based Screen for Antagonists of the DOR Receptor. [Related pubchem assays (depositor defined):AID1777, AID1785, AID1786, AID2133]. The class given is functional.
For assay [3], the target named is T2, Mu-type opioid receptor (Homo sapiens, UniProt P35372). Nature of the assay: MOR antagonists, SAR follow-up, image-based (AID 2420).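 Also: compounds added before stimulation of receptor with agonist DAMGO.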 Type of assay: functional.
T2 sequence (P35372 whole entry): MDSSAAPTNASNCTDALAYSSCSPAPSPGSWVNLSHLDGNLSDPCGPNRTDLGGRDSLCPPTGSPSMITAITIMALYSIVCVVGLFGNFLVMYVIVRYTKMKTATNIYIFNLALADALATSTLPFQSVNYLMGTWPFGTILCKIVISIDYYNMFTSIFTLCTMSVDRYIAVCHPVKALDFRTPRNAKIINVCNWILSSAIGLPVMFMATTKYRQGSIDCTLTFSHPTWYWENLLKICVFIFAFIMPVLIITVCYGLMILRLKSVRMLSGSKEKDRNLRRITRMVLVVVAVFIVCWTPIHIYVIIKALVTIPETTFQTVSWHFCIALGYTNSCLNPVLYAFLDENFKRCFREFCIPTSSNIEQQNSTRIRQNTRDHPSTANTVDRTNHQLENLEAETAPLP
The target in assay [4] is T3, Kappa-type opioid receptor (Homo sapiens, UniProt P41145). Put plainly: KOR agonist analogs, imaging readout, SAR follow-up, image-based (AID 2359). The class given is functional.
T3 sequence (P41145 whole entry): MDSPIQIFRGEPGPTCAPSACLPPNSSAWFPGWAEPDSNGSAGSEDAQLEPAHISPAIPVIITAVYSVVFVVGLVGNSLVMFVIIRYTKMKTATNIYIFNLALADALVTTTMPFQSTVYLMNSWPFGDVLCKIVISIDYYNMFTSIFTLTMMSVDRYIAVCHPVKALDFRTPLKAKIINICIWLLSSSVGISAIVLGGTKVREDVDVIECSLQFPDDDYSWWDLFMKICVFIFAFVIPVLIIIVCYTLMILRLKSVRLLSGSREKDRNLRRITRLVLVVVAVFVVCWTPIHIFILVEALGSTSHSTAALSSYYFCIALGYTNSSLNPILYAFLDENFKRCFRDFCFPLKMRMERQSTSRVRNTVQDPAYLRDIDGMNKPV
Assay [5] addresses T1, Delta-type opioid receptor. Put plainly: HTS Image-Based Screen for Agonists of the DOR Receptor. [Related pubchem assays (depositor defined):AID1777, AID1786, AID2133]. The class given is functional.
Assay [6] concerns the target T3, Kappa-type opioid receptor. Nature of the assay: SAR analysis of small molecule agonists of the kappa opioid receptor via a luminescent beta-arrestin assay. [Related pubchem assays (depositor defined):AID1777, AID1786, AID1966, AID2133, AID2136, AID2348, AID2352, AID2357, AID2359, AID2370, AID2420, AID2478, AID2491, AID2492, AID2493, AID2497, AID2498, AID2500, AID449737, AID488822, AID488842]. The class given is functional.

In assay [7] the target is Neuropeptide Y receptor type 2 (Homo sapiens, UniProt P49146). The class given is functional, cell-based.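 Also: HEK293 cells expressing the receptor and a CNG channel; stimulus was NPY near EC95 followed by isoproterenol to raise cAMP; antagonist potency measured as restoring cAMP signal that NPY suppresses.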
For assay [8], the target named is T2, Mu-type opioid receptor. Put plainly: HTS Image-Based Screen for Agonists of the MOR Receptor. [Related pubchem assays (depositor defined):AID1777, AID1785, AID1786, AID2133]. Type of assay: functional.
Assay [9] deals with T3, Kappa-type opioid receptor. The class given is functional.
Assay [10] addresses T3, Kappa-type opioid receptor. Type of assay: functional. The source holds these as a separate data set.
The target of assay [11] is T2, Mu-type opioid receptor. Nature of the assay: MOR agonists by imaging, SAR follow-up, image-based (AID 2352). The class given is functional.
Assay [12] concerns the target T3, Kappa-type opioid receptor. Nature of the assay: KOR antagonists by imaging, SAR follow-up, image-based (AID 2348). The class given is functional.
Assay [13] concerns the target Neuropeptide Y receptor type 1 (Homo sapiens, UniProt P25929). Type of assay: functional.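 Also: HEK293 cells with a CNG channel challenged with NPY then isoproterenol; potency as antagonist that reverses NPY suppression of cAMP signal.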
Assay [14] deals with T1, Delta-type opioid receptor. Nature of the assay: DOR agonists, SAR follow-up, image-based (AID 2370). Type of assay: functional.
For assay [15], the target named is T4, Heat shock factor protein 1 (Mus musculus, UniProt P38532).
T4 sequence (P38532 whole entry): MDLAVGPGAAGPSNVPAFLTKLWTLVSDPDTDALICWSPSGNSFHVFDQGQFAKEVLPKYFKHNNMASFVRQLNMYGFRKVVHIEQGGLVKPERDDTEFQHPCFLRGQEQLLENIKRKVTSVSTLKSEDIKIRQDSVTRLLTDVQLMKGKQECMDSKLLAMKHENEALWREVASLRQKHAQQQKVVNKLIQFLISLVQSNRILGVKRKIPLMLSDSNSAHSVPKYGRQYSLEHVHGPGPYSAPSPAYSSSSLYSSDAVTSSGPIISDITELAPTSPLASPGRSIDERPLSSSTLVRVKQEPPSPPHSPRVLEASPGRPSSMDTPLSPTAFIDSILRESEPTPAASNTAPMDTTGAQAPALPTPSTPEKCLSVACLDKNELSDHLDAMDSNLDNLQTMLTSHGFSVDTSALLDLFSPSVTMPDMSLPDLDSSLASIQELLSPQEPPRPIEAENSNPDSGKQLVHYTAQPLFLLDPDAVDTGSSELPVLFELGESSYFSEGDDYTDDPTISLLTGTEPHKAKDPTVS
Nature of the assay: HSF1 potentiators in luciferase reporter cells, confirmation, cell-based, NIH3T3, luminescence, dose retest (AID 435004).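 Also: stress induced by proteasome inhibitor MG132 added 30 min after compound; luciferase reporter driven by HSF1 response element in NIH3T3 cells; actives raise luminescence as potentiators of the MG132 stress response.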 The class given is functional. (Reporter assays use an easily measured gene product as a stand-in for the process of interest.)

Assay [16] deals with Lysine-specific demethylase 4A (Homo sapiens, UniProt O75164). Nature of the assay: JMJD2A histone demethylase inhibitors, dose response, selectivity assay for GASC-1 inhibitor project, biochemical, DELFIA europium, cherry-picked samples (AID 488840).
Assay [17] addresses Lysine-specific demethylase 4C (Homo sapiens, UniProt Q9H3R0). Nature of the assay: GASC-1 (JMJD2C) histone demethylase inhibitors, dose response, biochemical, DELFIA europium, cherry-picked samples (AID 488835). The class given is functional.
For assay [18], the target named is T5, Runt-related transcription factor 1/Core-binding factor subunit beta (Homo sapiens, UniProt Q01196+Q13951). Nature of the assay: inhibitors of RUNX1 Runt–CBFb-SMMHC binding, primary screen, biochemical, FRET, Cerulean-Runt, Venus-CBFb-SMMHC, uHTS (AID 1434).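 Also: partner is the CBFb-SMMHC leukemia fusion protein rather than wild-type CBFb.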 The class given is protein assay.
T5 sequence (Q01196 whole entry, the tested form may be a part): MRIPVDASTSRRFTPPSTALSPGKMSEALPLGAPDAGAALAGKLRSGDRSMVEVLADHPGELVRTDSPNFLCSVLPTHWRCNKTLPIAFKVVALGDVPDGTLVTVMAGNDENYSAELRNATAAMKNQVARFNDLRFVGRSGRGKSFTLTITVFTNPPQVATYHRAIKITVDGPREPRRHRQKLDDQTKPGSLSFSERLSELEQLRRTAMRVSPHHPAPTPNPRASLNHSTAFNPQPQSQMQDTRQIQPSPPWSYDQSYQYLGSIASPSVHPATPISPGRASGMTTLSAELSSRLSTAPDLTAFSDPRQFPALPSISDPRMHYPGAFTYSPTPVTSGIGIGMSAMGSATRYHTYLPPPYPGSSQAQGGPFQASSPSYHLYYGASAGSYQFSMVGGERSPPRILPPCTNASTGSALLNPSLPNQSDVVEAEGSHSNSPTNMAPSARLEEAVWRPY
T5 sequence (Q13951 whole entry, the tested form may be a part): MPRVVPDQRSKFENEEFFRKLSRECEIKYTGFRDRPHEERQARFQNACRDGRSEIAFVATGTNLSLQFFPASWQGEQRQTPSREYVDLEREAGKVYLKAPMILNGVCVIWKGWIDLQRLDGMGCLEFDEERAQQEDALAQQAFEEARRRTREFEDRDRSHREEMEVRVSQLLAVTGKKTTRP
Assay [19] addresses T6, SUMO-activating enzyme (Homo sapiens, UniProt Q9UBT2). Nature of the assay: inhibitors of in vitro SUMOylation cascade, primary screen, biochemical, HTRF, uHTS (AID 2006). The class given is protein-complex assay.
In assay [20] the target is T7, Corticotropin-releasing factor receptor 2/Corticotropin-releasing factor-binding protein (Homo sapiens, UniProt P24387+Q13324).
T7 sequence (Q13324 whole entry): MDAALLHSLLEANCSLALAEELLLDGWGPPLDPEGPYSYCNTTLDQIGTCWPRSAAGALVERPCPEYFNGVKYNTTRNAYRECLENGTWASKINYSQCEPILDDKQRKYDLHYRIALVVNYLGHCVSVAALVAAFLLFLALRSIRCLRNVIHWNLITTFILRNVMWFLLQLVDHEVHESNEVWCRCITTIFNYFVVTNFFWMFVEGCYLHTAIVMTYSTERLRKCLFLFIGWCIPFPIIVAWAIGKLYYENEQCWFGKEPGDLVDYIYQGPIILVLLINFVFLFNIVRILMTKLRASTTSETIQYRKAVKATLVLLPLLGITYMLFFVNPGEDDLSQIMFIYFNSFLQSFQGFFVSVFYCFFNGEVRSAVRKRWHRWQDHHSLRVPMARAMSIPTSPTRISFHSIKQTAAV
T7 sequence (P24387 whole entry): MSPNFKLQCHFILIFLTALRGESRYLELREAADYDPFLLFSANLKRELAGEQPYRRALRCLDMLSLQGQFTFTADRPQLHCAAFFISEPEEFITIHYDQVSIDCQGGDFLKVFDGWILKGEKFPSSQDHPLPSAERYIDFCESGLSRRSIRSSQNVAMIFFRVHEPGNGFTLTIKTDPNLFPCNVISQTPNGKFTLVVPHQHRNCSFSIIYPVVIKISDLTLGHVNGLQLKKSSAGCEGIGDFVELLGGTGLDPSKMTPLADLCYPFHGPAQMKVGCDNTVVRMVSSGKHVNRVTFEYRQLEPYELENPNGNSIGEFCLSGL
Put plainly: activators of CRF receptor 2 with binding protein – uHTS hits, confirmation (AID 602473). As to conditions: read-out: EC50_Mean. The class given is functional.

For assay [21], the target named is T5, Runt-related transcription factor 1/Core-binding factor subunit beta. Put plainly: inhibitors of RUNX1 Runt–CBFb-SMMHC binding, biochemical, TR-FRET (AID 1438). Type of assay: protein assay.
The target of assay [22] is T6, SUMO-activating enzyme. Nature of the assay: SUMOylation inhibitor hit validation, confirmation, SUMOylation inhibitor project, biochemical, AlphaScreen (AID 2018). Type of assay: functional. For orientation: Bead proximity is the source of the signal in Alpha formats.
Assay [23] deals with T8, Polyadenylate-binding protein 1 (Homo sapiens, UniProt P11940). Nature of the assay: PABP poly(A) RNA binding inhibitors, primary screen, biochemical, fluorescence polarization, uHTS (AID 2014).
T8 sequence (P11940 whole entry): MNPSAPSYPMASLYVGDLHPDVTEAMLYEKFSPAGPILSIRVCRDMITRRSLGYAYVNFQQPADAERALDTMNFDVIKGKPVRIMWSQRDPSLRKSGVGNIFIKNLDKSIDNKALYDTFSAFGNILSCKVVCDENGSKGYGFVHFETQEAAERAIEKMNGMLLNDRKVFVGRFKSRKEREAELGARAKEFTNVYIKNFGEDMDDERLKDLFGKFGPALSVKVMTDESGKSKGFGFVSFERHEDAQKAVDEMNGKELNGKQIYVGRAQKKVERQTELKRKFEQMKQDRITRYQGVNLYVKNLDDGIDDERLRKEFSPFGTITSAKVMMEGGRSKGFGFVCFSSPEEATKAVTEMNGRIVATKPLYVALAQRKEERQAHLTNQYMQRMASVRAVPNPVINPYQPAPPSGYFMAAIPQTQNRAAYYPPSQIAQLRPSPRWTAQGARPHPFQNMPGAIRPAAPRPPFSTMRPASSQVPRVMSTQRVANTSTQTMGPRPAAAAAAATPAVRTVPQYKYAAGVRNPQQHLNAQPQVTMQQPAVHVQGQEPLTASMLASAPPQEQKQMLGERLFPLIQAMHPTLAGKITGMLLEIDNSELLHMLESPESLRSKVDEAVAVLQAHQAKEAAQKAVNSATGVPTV
For assay [24], the target named is T8, Polyadenylate-binding protein 1. Put plainly: PABP inhibition in translation initiation, SAR follow-up (AID 435018). The class given is functional.
In assay [25] the target is T9, Eukaryotic translation initiation factor 4H (Homo sapiens, UniProt Q15056). Nature of the assay: eIF4H inhibition in translation initiation, SAR follow-up (AID 435011). Type of assay: functional.
For assay [26], the target named is T9, Eukaryotic translation initiation factor 4H. Put plainly: human eIF4H binding inhibitors, primary screen, translation initiation inhibitor project, biochemical, uHTS, fluorescence polarization (AID 2012). (In general: Fluorescence polarisation rises when a labelled molecule tumbles more slowly, as on binding a larger partner.)
Assay [27] addresses T8, Polyadenylate-binding protein 1. Nature of the assay: SAR analysis for the identification of translation initiation inhibitors (PABP) via an Electrophoretic Mobility Shift Dose Response Assay. [Related pubchem assays (depositor defined):AID2012, AID2014, AID2030]. Type of assay: functional.
Assay [28] concerns the target Estrogen receptor beta (Homo sapiens, UniProt Q92731).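 Also: recombinant ER-beta bound to coactivator SRC1 peptide in presence of estradiol agonist; inhibitors block coactivator peptide binding and lower the FRET signal.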

pEC50: −log10 of the molar value. Calls of active or inactive are those of the source.

T1 sequence (P41143 whole entry): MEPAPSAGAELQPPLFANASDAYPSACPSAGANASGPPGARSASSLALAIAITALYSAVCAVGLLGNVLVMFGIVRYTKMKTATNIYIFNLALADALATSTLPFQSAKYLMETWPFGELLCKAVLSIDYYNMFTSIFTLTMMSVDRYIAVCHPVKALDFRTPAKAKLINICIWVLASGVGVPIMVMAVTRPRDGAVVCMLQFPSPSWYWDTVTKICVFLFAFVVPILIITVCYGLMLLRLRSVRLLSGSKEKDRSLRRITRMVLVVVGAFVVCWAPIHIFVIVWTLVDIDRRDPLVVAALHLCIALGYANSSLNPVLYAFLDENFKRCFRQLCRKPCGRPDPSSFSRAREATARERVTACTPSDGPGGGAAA
T6 sequence (Q9UBE0 whole entry): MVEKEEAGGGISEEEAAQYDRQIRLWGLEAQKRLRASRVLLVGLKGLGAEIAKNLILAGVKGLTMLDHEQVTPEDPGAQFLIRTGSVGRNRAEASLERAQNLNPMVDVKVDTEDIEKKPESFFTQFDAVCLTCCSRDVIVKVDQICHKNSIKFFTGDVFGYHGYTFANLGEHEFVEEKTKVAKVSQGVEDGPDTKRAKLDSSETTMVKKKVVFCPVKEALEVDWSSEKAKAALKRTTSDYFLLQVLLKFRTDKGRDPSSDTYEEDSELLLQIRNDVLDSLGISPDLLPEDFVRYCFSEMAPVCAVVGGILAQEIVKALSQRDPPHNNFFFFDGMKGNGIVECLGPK
T6 sequence (Q9UBT2 whole entry): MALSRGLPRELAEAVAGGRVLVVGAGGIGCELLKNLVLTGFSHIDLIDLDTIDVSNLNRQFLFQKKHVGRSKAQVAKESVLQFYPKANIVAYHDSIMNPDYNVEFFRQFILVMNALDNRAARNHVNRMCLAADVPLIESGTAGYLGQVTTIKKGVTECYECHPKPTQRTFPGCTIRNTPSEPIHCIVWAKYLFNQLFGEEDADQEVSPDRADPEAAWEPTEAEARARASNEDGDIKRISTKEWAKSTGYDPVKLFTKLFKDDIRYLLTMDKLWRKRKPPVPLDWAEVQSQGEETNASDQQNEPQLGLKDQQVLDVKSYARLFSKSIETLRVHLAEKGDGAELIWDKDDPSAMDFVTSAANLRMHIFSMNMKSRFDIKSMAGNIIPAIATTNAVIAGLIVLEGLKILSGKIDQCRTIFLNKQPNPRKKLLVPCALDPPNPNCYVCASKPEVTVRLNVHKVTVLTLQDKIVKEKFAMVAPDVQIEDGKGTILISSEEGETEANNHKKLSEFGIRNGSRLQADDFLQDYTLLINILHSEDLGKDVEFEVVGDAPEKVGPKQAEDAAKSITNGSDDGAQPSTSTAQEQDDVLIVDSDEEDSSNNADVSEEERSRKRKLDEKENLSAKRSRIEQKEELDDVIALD
Sequence of Neuropeptide Y receptor type 1 (P25929 whole entry): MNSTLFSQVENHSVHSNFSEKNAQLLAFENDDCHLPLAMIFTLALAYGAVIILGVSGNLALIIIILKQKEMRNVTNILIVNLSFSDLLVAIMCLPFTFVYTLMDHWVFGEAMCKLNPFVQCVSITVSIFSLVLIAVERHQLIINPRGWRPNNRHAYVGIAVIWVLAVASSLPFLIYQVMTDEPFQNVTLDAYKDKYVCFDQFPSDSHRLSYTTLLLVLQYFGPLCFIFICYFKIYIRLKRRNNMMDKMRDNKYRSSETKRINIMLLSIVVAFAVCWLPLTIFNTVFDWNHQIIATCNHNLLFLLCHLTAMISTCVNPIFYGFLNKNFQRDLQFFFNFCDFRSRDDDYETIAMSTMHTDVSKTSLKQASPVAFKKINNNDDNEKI
Sequence of Estrogen receptor beta (Q92731 whole entry): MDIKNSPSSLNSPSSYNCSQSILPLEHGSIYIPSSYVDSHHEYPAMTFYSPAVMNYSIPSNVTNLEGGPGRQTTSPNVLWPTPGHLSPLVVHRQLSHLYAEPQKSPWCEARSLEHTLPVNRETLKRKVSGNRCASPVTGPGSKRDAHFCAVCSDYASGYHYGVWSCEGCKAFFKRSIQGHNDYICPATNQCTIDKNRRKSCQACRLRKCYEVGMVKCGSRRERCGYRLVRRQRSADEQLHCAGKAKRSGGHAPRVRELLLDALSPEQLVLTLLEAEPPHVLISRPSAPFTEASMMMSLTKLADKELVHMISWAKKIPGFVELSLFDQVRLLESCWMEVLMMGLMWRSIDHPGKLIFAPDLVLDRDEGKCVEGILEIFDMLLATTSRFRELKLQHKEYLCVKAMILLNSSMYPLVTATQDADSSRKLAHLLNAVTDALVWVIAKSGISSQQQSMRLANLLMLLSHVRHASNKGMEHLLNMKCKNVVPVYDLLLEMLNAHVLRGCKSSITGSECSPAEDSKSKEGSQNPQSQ

Turning to `Brc1ccc(CSc2nnc(-c3ccccn3)n2Cc2ccco2)cc1`, the IC50 (in general, the concentration at which inhibition is half-maximal) in [1] was > 32 µM (inactive); in [2] it was > 32 µM (inactive); in [3], > 32 µM (inactive); in assay [7] it was 8.06 µM (active); in [12], > 32 µM (inactive); in assay [13], 7.44 µM (active). Besides, the EC50 in assay [4] was 1.36 µM (active); in [5], > 32 µM (inactive); in [6], 1.92 µM (active); in [8], > 32 µM (inactive); in assay [11], > 32 µM (inactive); in assay [14] it was > 32 µM (inactive). The EC50 in assay [15] is 36.6 µM (active). For the same molecule, the values for the pEC50 in assay [9] and in [10] were 5.25 and 5.73, respectively.

With `CCCCn1c(-c2ccsc2)nc2c1c(=O)[nH]c(=O)n2CCC`, the AC50 (commonly the concentration giving half of the maximal activity seen) was 12.2 µM (active) in [16] and 4.19 µM (active) in [17].

In the case of `Cc1ccc(S(=O)(=O)c2cc3c(=O)n4ccccc4nc3n(Cc3ccco3)c2=N)cc1`, the IC50 is 5.08 µM (active) in assay [18], 3.93 µM (active) in assay [19], 58.6 µM (inactive) in [21] and 13.4 µM (active) in assay [22]. Moreover, the EC50 in assay [20] is > 53 µM (inactive).

Consider `CCOC(=O)N1CCC(NC(=O)c2cccc3c2C(=O)N(c2ccc(OC)cc2)C3)CC1`, for which the IC50 in [23] is 76.2 µM (active); in assay [24], > 100 µM (inactive); in assay [25] it was 6.47 µM (active); in assay [26] it was 9.51 µM (active); in assay [27], 10 µM (active); in [28] it was > 50 µM (not active).
